This note sets out measurements from EP0292170A2, “Enzyme immunoassay” (Bayer Corporation, priority 1987, dated 1988).

In the experiment the test system is antibody to phenytoin. The experiment can be described thus: Immunoreactivity: conjugate activity in the phosphorylase kinase reaction mixture in the presence of monoclonal antibody to phenytoin. It counts as biochemical. As to conditions: same reaction mixture, antibody added.

Regarding `Nc1ncnc2c1ncn2[C@@H]1O[C@H](COP(=O)(O)OP(=O)(O)OP(=O)(O)O)[C@@H](O)[C@H]1O` [ATP, adenosine triphosphate], the “inhibition of activity by antibody” value is “No inhibition”.
